Experimental findings from US8802700B2 (Vertex Pharmaceuticals Incorporated, priority 2010, dated 2014) are described below.

The assay deals with T1, ΔF508-CFTR (Homo sapiens, UniProt P13569, DEL508-508).
T1 construct: expressed in transfected cells
The assay is described as follows: Membrane potential optical assay (FRET voltage-sensor dyes, VIPR), identification of potentiator compounds. In kind it is cell-based. The settings on record: Table 3, assay not given; for Emax: read-out: % Activity (% Efficacy, relative efficacy). Summed up: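 NIH3T3 mouse fibroblasts stably expressing ΔF508-CFTR, cultured 24 h at 27 °C, were loaded with FRET voltage dyes CC2-DMPE and DiSBAC2(3). Double-addition format: first addition of Cl⁻-free (gluconate) medium with or without compound; membrane-potential change read as fluorescence on VIPR II.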

T1 sequence (P13569 with tags, fused parts or gaps DEL508-508): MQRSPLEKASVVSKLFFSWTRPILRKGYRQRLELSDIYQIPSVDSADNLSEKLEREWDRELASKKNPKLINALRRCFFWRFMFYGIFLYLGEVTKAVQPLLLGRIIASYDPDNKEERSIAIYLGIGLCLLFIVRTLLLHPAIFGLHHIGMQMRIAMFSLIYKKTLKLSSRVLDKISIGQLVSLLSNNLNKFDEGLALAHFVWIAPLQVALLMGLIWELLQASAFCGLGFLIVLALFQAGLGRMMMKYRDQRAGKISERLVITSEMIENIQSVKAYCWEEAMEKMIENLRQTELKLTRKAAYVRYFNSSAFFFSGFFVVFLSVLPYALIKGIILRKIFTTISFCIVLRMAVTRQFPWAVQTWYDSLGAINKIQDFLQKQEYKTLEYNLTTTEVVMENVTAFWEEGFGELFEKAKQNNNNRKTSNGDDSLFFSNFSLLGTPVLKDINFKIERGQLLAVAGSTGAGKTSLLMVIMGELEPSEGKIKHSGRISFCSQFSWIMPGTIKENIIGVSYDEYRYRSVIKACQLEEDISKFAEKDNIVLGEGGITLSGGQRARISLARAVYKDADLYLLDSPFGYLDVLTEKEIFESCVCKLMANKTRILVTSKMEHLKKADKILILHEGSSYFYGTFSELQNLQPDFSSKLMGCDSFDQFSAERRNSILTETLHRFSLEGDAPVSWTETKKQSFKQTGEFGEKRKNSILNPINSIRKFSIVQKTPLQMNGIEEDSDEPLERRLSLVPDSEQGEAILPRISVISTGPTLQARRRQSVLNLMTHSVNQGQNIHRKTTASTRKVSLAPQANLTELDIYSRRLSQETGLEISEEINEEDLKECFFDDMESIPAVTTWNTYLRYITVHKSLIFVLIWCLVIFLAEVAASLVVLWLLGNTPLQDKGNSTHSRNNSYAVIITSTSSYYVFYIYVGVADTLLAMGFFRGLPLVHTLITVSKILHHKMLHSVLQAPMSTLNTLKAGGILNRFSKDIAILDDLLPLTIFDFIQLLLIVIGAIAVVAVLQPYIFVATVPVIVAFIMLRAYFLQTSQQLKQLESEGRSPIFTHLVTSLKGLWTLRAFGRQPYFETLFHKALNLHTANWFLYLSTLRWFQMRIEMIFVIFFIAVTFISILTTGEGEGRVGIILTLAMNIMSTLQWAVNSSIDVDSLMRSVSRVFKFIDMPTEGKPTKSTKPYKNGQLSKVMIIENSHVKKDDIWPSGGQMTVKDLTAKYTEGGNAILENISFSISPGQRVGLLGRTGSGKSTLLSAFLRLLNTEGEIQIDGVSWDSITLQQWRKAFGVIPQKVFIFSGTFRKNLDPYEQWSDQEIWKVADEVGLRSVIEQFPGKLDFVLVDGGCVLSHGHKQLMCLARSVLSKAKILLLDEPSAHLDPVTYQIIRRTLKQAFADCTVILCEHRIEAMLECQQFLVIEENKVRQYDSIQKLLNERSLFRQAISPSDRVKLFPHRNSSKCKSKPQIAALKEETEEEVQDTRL

In the case of `CC(C)(C)OC(=O)Nc1ccc(C(C)(C)C)c(NC(=O)c2c[nH]c3ccccc3c2=O)c1` [Compound 353, [3-[(4-oxo-1H-quinolin-3-yl)carbonylamino]-4-tert-butyl-phenyl]aminoformic acid tert-butyl ester], the Emax lay in the range of 25 to 100%. Take `CN(Cc1ccccc1NC(=O)c1c[nH]c2ccccc2c1=O)C1CCCCC1` [Compound 354, N-[2-[(cyclohexyl-methyl-amino)methyl]phenyl]-4-oxo-1H-quinoline-3-carboxamide]: the Emax lay in the range of 25 to 100%. Same read-out and setting: next, `COc1ccccc1-c1ccccc1NC(=O)c1c[nH]c2ccccc2c1=O` [Compound 355, N-[2-(2-methoxyphenyl)phenyl]-4-oxo-1H-quinoline-3-carboxamide]: 25 to 100%. Still for that read-out and setting: next, `CCCc1ccc(NC)cc1NC(=O)c1c[nH]c2ccccc2c1=O` [Compound 356, N-(5-methylamino-2-propyl-phenyl)-4-oxo-1H-quinoline-3-carboxamide]: 25 to 100%; `CC(C)c1c[nH]c2cc(NC(=O)c3c[nH]c4ccccc4c3=O)ccc12` [Compound 357, N-(3-isopropyl-1H-indol-6-yl)-4-oxo-1H-quinoline-3-carboxamide]: 25 to 100%. Same read-out and setting: next, `O=C(Nc1ccc2cc[nH]c2c1)c1cnc2ccc(Cl)cc2c1O` [Compound 358, 6-chloro-4-hydroxy-N-(1H-indol-6-yl)quinoline-3-carboxamide]: 25 to 100%; `CN(C)CCS(=O)(=O)Nc1cc(NC(=O)c2c[nH]c3ccccc3c2=O)cc(C(F)(F)F)c1` [Compound 359, N-[3-(2-dimethylaminoethylsulfonylamino)-5-(trifluoromethyl)phenyl]-4-oxo-1H-quinoline-3-carboxamide]: 25 to 100%; `O=C(Nc1ccc(OC(F)F)cc1)c1c[nH]c2ccccc2c1=O` [Compound 360, N-[4-(difluoromethoxy)phenyl]-4-oxo-1H-quinoline-3-carboxamide]: 25 to 100%. In the case of `COc1ccc(OC)c(-c2ccccc2NC(=O)c2c[nH]c3ccccc3c2=O)c1` [Compound 361, N-[2-(2,5-dimethoxyphenyl)phenyl]-4-oxo-1H-quinoline-3-carboxamide], the half-maximal effective concentration (EC50) is < 10 µM and the Emax was > 100%. Consider `CC(C)(C)c1ccc(NC(=O)c2c[nH]c3ccccc3c2=O)c(Cl)c1` [Compound 362, N-(2-chloro-4-tert-butyl-phenyl)-4-oxo-1H-quinoline-3-carboxamide], for which the Emax was 25 to 100%.

`COc1cccc(-c2ccccc2NC(=O)c2c[nH]c3ccccc3c2=O)c1F` [Compound 363, N-[2-(2-fluoro-3-methoxy-phenyl)phenyl]-4-oxo-1H-quinoline-3-carboxamide]: the Emax is > 100%. The same measure, in the same setting: next, `Cc1ccc2cccc(NC(=O)c3c[nH]c4ccccc4c3=O)c2n1` [Compound 364, N-(2-methyl-8-quinolyl)-4-oxo-1H-quinoline-3-carboxamide]: 25 to 100%. On the same count and under the same terms, next, `CC(=O)c1ccccc1NC(=O)c1c[nH]c2ccccc2c1=O` [Compound 365, N-(2-acetylphenyl)-4-oxo-1H-quinoline-3-carboxamide]: 25 to 100%. The same measure, in the same setting: next, `O=C(Nc1ccccc1-c1ccc(C(F)(F)F)cc1)c1c[nH]c2ccccc2c1=O` [Compound 366, 4-oxo-N-[2-[4-(trifluoromethyl)phenyl]phenyl]-1H-quinoline-3-carboxamide]: 25 to 100%; `O=C(Nc1ccccc1-c1cc(Cl)cc(Cl)c1)c1c[nH]c2ccccc2c1=O` [Compound 367, N-[2-(3,5-dichlorophenyl)phenyl]-4-oxo-1H-quinoline-3-carboxamide]: 25 to 100%. `CCCOc1ccc(NC(=O)c2c[nH]c3ccccc3c2=O)cc1N` [Compound 368, N-(3-amino-4-propoxy-phenyl)-4-oxo-1H-quinoline-3-carboxamide]: the Emax fell in the range of 25 to 100%. Same read-out and setting: next, `N#Cc1cc(Cl)cc(Cl)c1NC(=O)c1c[nH]c2ccccc2c1=O` [Compound 369, N-(2,4-dichloro-6-cyano-phenyl)-4-oxo-1H-quinoline-3-carboxamide]: < 25%; `O=C(Nc1cccc(Cl)c1)c1c[nH]c2ccccc2c1=O` [Compound 370, N-(3-chlorophenyl)-4-oxo-1H-quinoline-3-carboxamide]: 25 to 100%. Still for that read-out and setting: next, `O=C(Nc1ccccc1SC(F)(F)F)c1c[nH]c2ccccc2c1=O` [Compound 371, 4-oxo-N-[2-(trifluoromethylsulfanyl)phenyl]-1H-quinoline-3-carboxamide]: 25 to 100%; `CC1CCN(c2ccccc2NC(=O)c2c[nH]c3ccccc3c2=O)CC1` [Compound 372, N-[2-(4-methyl-1-piperidyl)phenyl]-4-oxo-1H-quinoline-3-carboxamide]: 25 to 100%; `O=C(Nc1cccc2c1CCC2)c1c[nH]c2ccccc2c1=O` [Compound 373, N-indan-4-yl-4-oxo-1H-quinoline-3-carboxamide]: 25 to 100%. In the case of `CSc1nc2ccccc2c(O)c1C(=O)Nc1ccc2cc[nH]c2c1` [Compound 374, 4-hydroxy-N-(1H-indol-6-yl)-2-methylsulfanyl-quinoline-3-carboxamide], the Emax was < 25%.

With `O=C(Nc1ccc2c(c1)CCCC2)c1c[nH]c2ccccc2c1=O` [Compound 375, 1,4-dihydro-N-(1,2,3,4-tetrahydronaphthalen-6-yl)-4-oxoquinoline-3-carboxamide], the Emax fell in the range of 25 to 100%. For `O=C(Nc1ccc2oc(-c3ccccc3)nc2c1)c1c[nH]c2ccccc2c1=O` [Compound 376, 4-oxo-N-(2-phenylbenzooxazol-5-yl)-1H-quinoline-3-carboxamide], the Emax was < 25%. In the case of `O=C(Nc1ccc2cc[nH]c2c1)c1cnc2c(F)cc(F)cc2c1O` [Compound 377, 6,8-difluoro-4-hydroxy-N-(1H-indol-6-yl)quinoline-3-carboxamide], the Emax fell in the range of 25 to 100%.

For the molecule `COc1ccc(NC(=O)c2c[nH]c3ccccc3c2=O)cc1N` [Compound 378, N-(3-amino-4-methoxy-phenyl)-4-oxo-1H-quinoline-3-carboxamide], the Emax is 25 to 100%. Take `CC(=O)Nc1cc(NC(=O)c2c[nH]c3ccccc3c2=O)cc(C(F)(F)F)c1` [Compound 379, N-[3-acetylamino-5-(trifluoromethyl)phenyl]-4-oxo-1H-quinoline-3-carboxamide]: the Emax was in the range of 25 to 100%. For `CCOc1ccccc1NC(=O)c1c[nH]c2ccccc2c1=O` [Compound 380, N-(2-ethoxyphenyl)-4-oxo-1H-quinoline-3-carboxamide], the Emax is 25 to 100%. In the case of `CC(C)(C)c1cc2cc[nH]c2cc1NC(=O)c1c[nH]c2ccccc2c1=O` [Compound 381, 4-oxo-N-(5-tert-butyl-1H-indol-6-yl)-1H-quinoline-3-carboxamide], the Emax was in the range of 25 to 100%. The same measure, in the same setting: next, `CCCc1ccc(NC(=O)c2c[nH]c3ccccc3c2=O)cc1NC(=O)OCC` [Compound 382, [5-[(4-oxo-1H-quinolin-3-yl)carbonylamino]-2-propyl-phenyl]aminoformic acid ethyl ester]: 25 to 100%; `CCc1c[nH]c2cc(NC(=O)c3c[nH]c4ccccc4c3=O)ccc12` [Compound 383, N-(3-ethyl-1H-indol-6-yl)-4-oxo-1H-quinoline-3-carboxamide]: 25 to 100%; `O=C(Nc1ccccc1-c1cc(F)ccc1F)c1c[nH]c2ccccc2c1=O` [Compound 384, N-[2-(2,5-difluorophenyl)phenyl]-4-oxo-1H-quinoline-3-carboxamide]: 25 to 100%. Consider `O=C(Nc1cccnc1Oc1ccc(F)cc1F)c1c[nH]c2ccccc2c1=O` [Compound 385, N-[2-(2,4-difluorophenoxy)-3-pyridyl]-4-oxo-1H-quinoline-3-carboxamide], for which the EC50 is < 10 µM and the Emax was 25 to 100%. Consider `CC1(C)CNc2cc(NC(=O)c3c[nH]c4ccccc4c3=O)ccc21` [Compound 386, N-(3,3-dimethylindolin-6-yl)-4-oxo-1H-quinoline-3-carboxamide], for which the Emax is 25 to 100%.

With `Cc1c(NC(=O)c2c[nH]c3ccccc3c2=O)cccc1C(F)(F)F` [Compound 387, N-[2-methyl-3-(trifluoromethyl)phenyl]-4-oxo-1H-quinoline-3-carboxamide], the Emax was 25 to 100%. For `O=C(Nc1ccccc1-c1ccc(OC(F)(F)F)cc1)c1c[nH]c2ccccc2c1=O` [Compound 388, 4-oxo-N-[2-[4-(trifluoromethoxy)phenyl]phenyl]-1H-quinoline-3-carboxamide], the Emax was 25 to 100%. The same measure, in the same setting: next, `O=C(Nc1cccc(Cc2ccccc2)c1)c1c[nH]c2ccccc2c1=O` [Compound 389, N-(3-benzylphenyl)-4-oxo-1H-quinoline-3-carboxamide]: 25 to 100%; `CC(C)(C)c1ccc(NC(=O)c2c[nH]c3ccccc3c2=O)cc1CN` [Compound 390, N-[3-(Aminomethyl)-4-tert-butyl-phenyl]-4-oxo-1H-quinoline-3-carboxamide]: < 25%; `CC(C)Cc1ccc(-c2ccccc2NC(=O)c2c[nH]c3ccccc3c2=O)cc1` [Compound 391, N-[2-(4-isobutylphenyl)phenyl]-4-oxo-1H-quinoline-3-carboxamide]: 25 to 100%. For the molecule `O=C(Nc1ccc(Cl)nc1)c1c[nH]c2ccccc2c1=O` [Compound 392, N-(6-chloro-3-pyridyl)-4-oxo-1H-quinoline-3-carboxamide], the Emax is < 25%.

With `CCOc1ccccc1-c1ccc(N)cc1NC(=O)c1c[nH]c2ccccc2c1=O` [Compound 393, N-[5-amino-2-(2-ethoxyphenyl)-phenyl]-4-oxo-1H-quinoline-3-carboxamide], the Emax was 25 to 100%. For `Cc1ccc2c(c1)c(=O)c(C(=O)Nc1ccccc1)cn2C` [Compound 394, 1,6-dimethyl-4-oxo-N-phenyl-1H-quinoline-3-carboxamide], the Emax is < 25%. On the same count and under the same terms, next, `O=C(Nc1cc(O)c(C23CC4CC(CC(C4)C2)C3)cc1F)c1cnc2ccccc2c1O` [Compound 395, N-[4-(1-adamantyl)-2-fluoro-5-hydroxy-phenyl]-4-hydroxy-quinoline-3-carboxamide]: 25 to 100%.

The EC50 is the midpoint of the concentration-response curve.
